The record followed here is the OligoGym collection.

Several values for one entry are separate records, joined by “and”; a condition that tells them apart may be missing. Equal values may be shown once. After the bases stand the sugars from the 5' end (letter, count) and the backbone: PS all phosphorothioate, else s phosphorothioate and o phosphodiester by linkage. Methylation of C is not given here. k = constrained ethyl (cEt); d = 2'-deoxy (DNA)

The series has as its target MALAT1. As to conditions: ASO, A431, 0.005 µM.
Turning to AGGTATGAGCTTCAGA (sugars k3 d10 k3, PS), the target mRNA inhibition was found to be 1%. The same measure for AGGTTACCATAAGTAA (sugars k3 d10 k3, PS): 10%.

For the sequence AGGTTCTAGTTTTACT (sugars k3 d10 k3, PS), the target mRNA inhibition worked out at 16%. The same measure for AGTAGTTGTATTAATC (sugars k3 d10 k3, PS): 64% and 41%; for AGTCAAAGCAAAGACG (sugars k3 d10 k3, PS): 35%; for AGTCACTGGATAAGTA (sugars k3 d10 k3, PS): 41%. For AGTCCAATGCAAAAAC (sugars k3 d10 k3, PS), the target mRNA inhibition amounted to 23%. The same measure for AGTGTAAAACATTGCC (sugars k3 d10 k3, PS): 7%; for AGTTAATGTCAGCCCA (sugars k3 d10 k3, PS): 34%; for AGTTACATGTTCCCAC (sugars k3 d10 k3, PS): 33%. With AGTTATATTAGGTTCT (sugars k3 d10 k3, PS) the figure was 22%. AGTTGGTAATTACTCT (sugars k3 d10 k3, PS): the target mRNA inhibition was 40%.

Turning to AGTTTATCTGCAATCA (sugars k3 d10 k3, PS), the target mRNA inhibition was 46% and 59%. With AGTTTGCTCACATGCC (sugars k3 d10 k3, PS) the figure was 65% and 53%; with ATAACTGATCTGACTT (sugars k3 d10 k3, PS), -5%. With ATAAGCACTTATCCCT (sugars k3 d10 k3, PS) the figure was 50%; with ATAAGGTCAATAGTGT (sugars k3 d10 k3, PS), 38%. The same measure for ATACATCAAGGATGTA (sugars k3 d10 k3, PS): 19%; for ATACTGAAAACTCCCC (sugars k3 d10 k3, PS): 14%. As to ATACTTCTCCAATACT (sugars k3 d10 k3, PS), the target mRNA inhibition is -15%. For ATATAAGGTCAATAGT (sugars k3 d10 k3, PS), the target mRNA inhibition is 16%. As to ATATCTTAGTAACCTA (sugars k3 d10 k3, PS), the target mRNA inhibition was found to be 15%. On to ATATTTAACTTCCCCC (sugars k3 d10 k3, PS), for which the target mRNA inhibition was found to be 30%. As to ATATTTTAAACGGGTC (sugars k3 d10 k3, PS), the target mRNA inhibition worked out at 16%. The same measure for ATCACCTTCCGCCGCC (sugars k3 d10 k3, PS): 15%; for ATCACCTTCGGTTTAA (sugars k3 d10 k3, PS): 40%. For the sequence ATCCACTTCTGTGTAG (sugars k3 d10 k3, PS), the target mRNA inhibition stood at 38%. In the case of ATCCACTTGATCCCAA (sugars k3 d10 k3, PS), the target mRNA inhibition came to 16%. With ATCCCAACCGTAACAG (sugars k3 d10 k3, PS) the figure was 13%.

As to ATCCCTTTACACCTCA (sugars k3 d10 k3, PS), the target mRNA inhibition was determined as 36%. The same measure for ATCTGCGGCCCCCCAG (sugars k3 d10 k3, PS): -8%; for ATGAGTATAAGCCTGA (sugars k3 d10 k3, PS): 55%; for ATGCACTGGTACACCC (sugars k3 d10 k3, PS): 24%. With ATGCTACTCTTCTAAG (sugars k3 d10 k3, PS) the figure was 40%; with ATGCTAGTCCTCAGGA (sugars k3 d10 k3, PS), -20%; with ATGGAAAGCGAGTTCA (sugars k3 d10 k3, PS), 14%. As for ATGGCTTTGTCTCCGA (sugars k3 d10 k3, PS), the target mRNA inhibition was determined as 15%. The same measure for ATTAAATTGATGGGCT (sugars k3 d10 k3, PS): 20%; for ATTAATGCTAGTCCTC (sugars k3 d10 k3, PS): 36%.

On to ATTACACCAGTCCTTT (sugars k3 d10 k3, PS), for which the target mRNA inhibition is 40%. With ATTACGCAACTGAGCC (sugars k3 d10 k3, PS), the target mRNA inhibition was 16%. With ATTCAAGCTGAACTAT (sugars k3 d10 k3, PS) the figure was 10%.

Consider ATTCACCAAGGAGCTG (sugars k3 d10 k3, PS), for which the target mRNA inhibition turned out to be 39%. With ATTCTAGACAGACCTA (sugars k3 d10 k3, PS), the target mRNA inhibition came to 33%. As for ATTGGTAGCTTTCATT (sugars k3 d10 k3, PS), the target mRNA inhibition is 70% and 83%. The same measure for ATTGGTTACCAATAAT (sugars k3 d10 k3, PS): 4%; for ATTGTAGTTAATGTCA (sugars k3 d10 k3, PS): 50%. With ATTTATTTCGGCTTCT (sugars k3 d10 k3, PS) the figure was 71% and 90%; with ATTTGAACCCCGTCCT (sugars k3 d10 k3, PS), 31%; with ATTTTAAAAAGGCTCG (sugars k3 d10 k3, PS), 27%. For the sequence CAAAAAGTAGTTCTTC (sugars k3 d10 k3, PS), the target mRNA inhibition is -18%. The same measure for CAAAAGCCCTCTCAGC (sugars k3 d10 k3, PS): -14%; for CAAAATCCTGAATGGC (sugars k3 d10 k3, PS): 10%; for CAAAATGGCGGACTTT (sugars k3 d10 k3, PS): 17%.

As to CAAACTAAGCTACTAT (sugars k3 d10 k3, PS), the target mRNA inhibition came out at 15%. Regarding CAAACTGCTTACAGAT (sugars k3 d10 k3, PS), the target mRNA inhibition came to 31%.

For CAAATTGCACTCGCTC (sugars k3 d10 k3, PS), the target mRNA inhibition was determined as 34%. CAACAAGTAAGCCCCA (sugars k3 d10 k3, PS): the target mRNA inhibition is 0%. With CAACAATCACTACTCC (sugars k3 d10 k3, PS) the figure was 16%; with CAACATATTGCCGACC (sugars k3 d10 k3, PS), -26%.

With CAACTAAGCGAATGGC (sugars k3 d10 k3, PS), the target mRNA inhibition was determined as 24%. With CAACTGGGAATACTCT (sugars k3 d10 k3, PS), the target mRNA inhibition came out at 20%.

On to CAACTTGGAAGTTGAT (sugars k3 d10 k3, PS), for which the target mRNA inhibition is 10%. CAAGATTGCCCCAACA (sugars k3 d10 k3, PS): the target mRNA inhibition stood at 12%. As to CAAGCATTCCTTCGGA (sugars k3 d10 k3, PS), the target mRNA inhibition is 25%. Turning to CAAGGCACTGATCACT (sugars k3 d10 k3, PS), the target mRNA inhibition came to 48%. With CAAGTTAAACTTATCT (sugars k3 d10 k3, PS) the figure was 16%. With CAATCAAGTCAAGCTC (sugars k3 d10 k3, PS) the figure was 3%. On to CAATGCACTAAAGATC (sugars k3 d10 k3, PS), for which the target mRNA inhibition stood at 10%. The same measure for CAATGCCTACCGCACA (sugars k3 d10 k3, PS): 16%. With CAATTTACATCACAAC (sugars k3 d10 k3, PS), the target mRNA inhibition is 45%.

Take CACAAAACCCCCGGAA (sugars k3 d10 k3, PS): the target mRNA inhibition is 19%. The same measure for CACAAGGATCCAAGCT (sugars k3 d10 k3, PS): 18%; for CACCAAAGACCTCGAC (sugars k3 d10 k3, PS): 18%; for CACCAAATTGCACTCG (sugars k3 d10 k3, PS): 54% and 73%. As to CACCACCTGGAATGGC (sugars k3 d10 k3, PS), the target mRNA inhibition is 8%. In the case of CACCCGGAAATCGGCC (sugars k3 d10 k3, PS), the target mRNA inhibition is -1%. As for CACGGGCTGTCTGCTT (sugars k3 d10 k3, PS), the target mRNA inhibition came to 18%. As to CACTGATCACTTTAGA (sugars k3 d10 k3, PS), the target mRNA inhibition worked out at 41%. Turning to CACTGCCAACTAATTG (sugars k3 d10 k3, PS), the target mRNA inhibition was found to be 39%. Regarding CACTGGTACACCCAGT (sugars k3 d10 k3, PS), the target mRNA inhibition came to 15%. The same measure for CAGAAAAAGCTTGTTC (sugars k3 d10 k3, PS): 37%. The same measure for CAGATGCAAGTTAAAC (sugars k3 d10 k3, PS): 40%. With CAGCGGTACACTCCTT (sugars k3 d10 k3, PS) the figure was 36%. On to CAGCTCGGGCGAGGCG (sugars k3 d10 k3, PS), for which the target mRNA inhibition is 13%. With CAGGCTGGTTATGACT (sugars k3 d10 k3, PS) the figure was 26%; with CAGGGCTTTACTTTCC (sugars k3 d10 k3, PS), 2%; with CAGTAGGCCAGACCAA (sugars k3 d10 k3, PS), 14%. As to CAGTTACACATCCAAA (sugars k3 d10 k3, PS), the target mRNA inhibition came out at 45%.

With CAGTTACTCCAGCATA (sugars k3 d10 k3, PS), the target mRNA inhibition amounted to 24%. For the sequence CATAAGTAAGTTCCAG (sugars k3 d10 k3, PS), the target mRNA inhibition stood at 49%. As to CATACAAACTGCTTAC (sugars k3 d10 k3, PS), the target mRNA inhibition was found to be 29%. With CATACCTTAACATCTT (sugars k3 d10 k3, PS) the figure was 32%; with CATATTTTAAACGGGT (sugars k3 d10 k3, PS), -16%.

With CATATTTTGCCCCCAC (sugars k3 d10 k3, PS), the target mRNA inhibition came to 15%.

In the case of CATCACCGGAATTCGA (sugars k3 d10 k3, PS), the target mRNA inhibition amounted to 2%. In the case of CATCAGTAGTAAGAAT (sugars k3 d10 k3, PS), the target mRNA inhibition was 14%. Consider CATCCAAACTCTACAT (sugars k3 d10 k3, PS), for which the target mRNA inhibition turned out to be 23%. The same measure for CATGGATTTCAAGGTC (sugars k3 d10 k3, PS): 11%.
